Test system: Caspase-3
Experiment: ELISA of Caspase-3 in mouse hippocampus after Aβ25-35
Assay type: in vivo, souris
Excerpt: Le 1^er jour : une version « mélangée » (scrambled) du peptide amyloïde β25-35 (Sc.Aβ, témoin négatif) ou le peptide amyloïde β25-35 (Aβ25-35) est injecté par voie intra-cérébroventriculaire (ICV) (le peptide Aβ25-35 provoque l'intoxication cellulaire). Entre le 1^er jour et le 10^ème jour, les traitements sont administrés une fois par jour par voie intrapéritonéale (IP).
A la fin de la session de rétention d'évitement passif, le 10^ème jour, les animaux sont sacrifiés par décapitation. L'hippocampe et le cortex frontal sont disséqués et congelés dans l'azote liquide. L'hippocampe est utilisé pour mesurer le taux de peroxydation lipidique à l'aide d'une méthode colorimétrique et pour évaluer les taux de 4 marqueurs biochimiques par des tests ELISA. Le cortex est conservé à -80°C en attente d'analyses supplémentaires. Les plasmas sont également conservés en attente d'analyses supplémentaires. Les échantillons biologiques sont jetés après 3 mois.
Pour tous les dosages, les […] sont homogénéisés, après décongélation, dans un tampon Tris (Tris 50 mM, 150 mM NaCl, pH 7,5) et traités par ultrasons pendant 20 secondes. […] Pour chaque dosage, l'absorbance est lue à 450 nm et la concentration est calculée en utilisant la courbe standard. Les résultats sont exprimés en pg ou ng de marqueur par mg de tissu et en pourcentage de solution Sc.Aβ + véhicule. 6 échantillons par groupe (n = 36 kits ELISA) sont dosés en double.

In the case of `CCNC1=Nc2ccc(Cl)cc2C(C)(c2ccccc2)O1` (stereo not drawn) [Etifoxine, chlorhydratede 6-chloro-2-éthylamino-4-méthyl-4-phényl-4H-[3,1]benzoxazine], the “Expression CASP-3” value (Aβ25-35/Etifoxine 12.5 mg/kg IP) is reported as 136,8 ± 7,2 % de Sc.Aβ/V, the “Expression CASP-3” value (Aβ25-35/Etifoxine 25 mg/kg IP) is reported as 127,3 ± 10,8 % de Sc.Aβ/V and the “Expression CASP-3” value (Aβ25-35/Etifoxine 50 mg/kg IP) is reported as 109,9 ± 5,6 % de Sc.Aβ/V.
